From US7968525B1, “Use of RNA interference to validate new termiticide target sites and a method of termite control” (University of Florida Research Foundation, Inc., priority 2007, dated 2011)

What was measured:
exoglucanases = conditions: in vitro enzyme assays, earlier work; cited from earlier work
beta glucosidase = conditions: in vitro enzyme assays, earlier work; cited from earlier work
termite = conditions: bioassays, earlier work; cited from earlier work
R. flavipes workers [1] = assay: Hex-2 dsRNA feeding bioassay with and without JH (morphology, lethal molts); assay type: in vivo, Reticulitermes flavipes; conditions: feeding on Hex-2 dsRNA alone or JH alone
Description: dsRNA Feeding bioassays. dsRNA-mediated gene silencing was accomplished using voluntary feeding bioassays. Termites were pre-starved for 12 h to standardize their hunger status before the assay. The bioassay was run by placing groups of 15 worker termites into 35-mm tissue culture dishes that contained 18 mm diam. treated paper towel disks. Multiple and single dose dsRNA regimes were tested. All assays were carried out for 24-d. Paper disk moisture was monitored every other day. Every 8th day, old paper disks were replaced with new ones. These new paper disks were treated exactly the same as previous ones. Feeding (mg/dish) was determined by comparing weights of paper disks before and after confinement with termites, whereas body weight (mg/termite) was measured by comparing termite weights before and after 8-day paper consumption and then by correcting for the number of live termites at the time of sampling. Paper disks were dried in a drying oven before weighing. Mortality, paper consumption, body weight change, and/or presoldier formation were documented every 8th day. The complete experimental design included two colonies (Colony-1 and -2), with three replicate dishes per treatment per colony.
For Cell-1 dsRNA feeding bioassays, the experimental design included two treatments (triple and single dose Cell-1 dsRNA) and a control (3 doses of dsRNA buffer; Ambion; Austin, Tex.). […]

R. flavipes workers [2] = assay: dsRNA + JH III feeding assay, lethal times by probit analysis; assay type: in vivo, Reticulitermes flavipes; conditions: JH III alone
Description: Six additional developmental genes were targeted by combined dsRNA+JH III treatments: broad, farnesoic acid methyl transferase (FAMET-2), two family 15 cytochrome P450s (Cyp15-1, Cyp15-2), and two vitellogenin genes (Vit-1, Vit-2). dsRNAs corresponding to internal 500 base pair fragments of all six genes (see FIG. 22) were prepared as described under “description of the preferred embodiment”. Twenty μg of dsRNA was applied in 50 μL nanopure water to a penny-sized ([…]) paper disk. The disk was placed in a 5 cm tissue culture dish and 15 worker termites were added. Assays ran for 25 days at 60% relative humidity and 27 degrees C., with water being replenished and mortality/presoldier formation scored every 5th day.
LT50 and LT90 were determined from time-mortality data using probit analysis (SAS software; Cary, N.C.). In this context, the terms LT50 and LT90 refer to the estimated times at which 50% and 90% mortality occurs in response to the various RNAi treatments relative to JH III treatments alone (FIG. 23). Applying the six dsRNAs alone had no significant effects on survivorship. The LT50 and LT90 values for JH III alone were 34.5 and 65.7 days, respectively (as a result of fitness costs from elevated presoldier levels).

For fluromethyl cellobiose [FMCB], the “inhibition of exoglucanases activity” value (exoglucanases) is given as “Good to excellent inhibition”, the “inhibition of beta glucosidase activity” value (beta glucosidase) is given as “Good to excellent inhibition” and the termite mortality (termite) is given as “only moderate termite mortality”.
With COC(=O)/C=C(\C)CC/C=C(\C)CC[C@H]1OC1(C)C [JH III, juvenile hormone III] the caste phenotype induced (R. flavipes workers [1]) was “wildtype caste phenotypes”, the LT50 (R. flavipes workers [2]; time to 50% mortality) was 34.5 days and the LT90 (R. flavipes workers [2]; time to 90% mortality) was 65.7 days.
In the case of OC[C@@H]1[C@@H](O[C@@H]2O[C@H](CO)[C@@H](O)[C@H](O)[C@H]2O)[C@H](O)[C@@H](O)c2nccn21 [CBI, cellobioimidazole], the “inhibition of exoglucanases activity” value (exoglucanases) is listed as “Good to excellent inhibition”, the “inhibition of beta glucosidase activity” value (beta glucosidase) is listed as “Good to excellent inhibition” and the termite mortality (termite) is listed as “only moderate termite mortality”.
